The values that follow come from patent US20180110743A1, “COMPOSITIONS AND METHODS FOR TREATING HEPATOCELLULAR CARCINOMA” (Northwestern University, priority 2015, published 2018).

Read-outs that look alike come from different tables or passages of the source.

One series relates to K562/ADR. Briefly: Growth inhibition IC50 in multidrug-resistant vs parental cells (resistance factor), K562/ADR. The series is classed as cell-based. As to conditions: ratio of IC50 in K562/ADR to sensitive parental cells. The protocol: (§1) To address this point, the IC50 of MEAN in cell lines with or without activated p-glycoprotein were compared based on the rationale that if an agent is a substrate, its IC50 (growth inhibition in this case) will increase substantially in cells with activated p-glycoproteins (multi-drug resistant cells). Three separate experiments were carried out to determine the values of IC50, as mean±standard deviation (μM), and the inhibition rates of each concentration of compounds were tested in triplicate. The resistance factor (RF) was calculated as the ratio of the IC50 value of the multidrug-resistant cells to that of the corresponding sensitive parental cells.
(§2) IC50 of MEAN and reference compounds, doxorubicin and vincristine (VCR), were evaluated in three MDR expressing sublines: K562/ADR, MCF-7/ADR, and KB/VCR developed from resistance to Adriamycin (ADR) (FIG. 4C). For each of these cell lines, the RFs were measured to indicate the anti-MDR properties of the compounds. The resistance factor for doxorubicin in K562/ADR and MCF-7/ADR sublines and for vincristine in the KB/VCR subline were 74.1, 54.0, and 51.2.

The next series has as its system MCF-7/ADR. In words: Growth inhibition IC50 in multidrug-resistant vs parental cells (resistance factor), MCF-7/ADR. The series is classed as cell-based. The note with it: ratio of IC50 in MCF-7/ADR to sensitive parental cells. The protocol: as §1, §2
Series [1] deals with SIRT1. In words: Western blot of treated xenograft tumor tissue, SIRT1. It counts as in vivo, mice. As to conditions: Huh7 and HepG2 tumors, end of 42 day treatment. How it is done:
(§3) FIG. 6. […] The intensity of vehicle is set at 1 and ratios of treatment/vehicle are plotted in each quantitative graph.
(§4) Cells or tumor chunks were lysed with RIPA lysis buffer (Beyotime Biotechnology, Jiangsu, China) containing 1% Halt™ Protease and Phosphatase Inhibitor Cocktail (100X) (Thermo Fisher Scientific). 20 ug of total protein per lanewere separated by 10% SDS-PAGE gels and transferred to polyvinylidene difluoride membranes (Millipore, Bedford, Mass.), and blocked with 1% BSA in TBS-Tween 20 (0.05%, v/v) for 1 h at room temperature. The membrane was incubated with primary antibody overnight at 4° C. Antibodies for c-Myc and GAPDH were obtained from Cell Signaling Technology (Beverly, Mass.), and TXNIP, SHP-1, and SIRT1 were obtained from Abcam (Cambridge, Mass.). After washing, the membrane was incubated with the appropriate horseradish peroxidase-conjugated secondary antibody (1:3000; Eptmomics) for 1 h. Blots were visualized by ECL-associated fluorography (Millipore). Relative band intensity was quantified using the ImageJ software to determine c-myc, TXNIP, SHP-1, and SIRT1 levels.
A general note: A western blot detects proteins with antibodies after separation by electrophoresis.

The subject of the next series is HepG2-luc xenograft. Briefly: HepG2-luc xenograft tumor growth in nude mice. The series is classed as in vivo. The note with it: 15 mg/kg each agent, IP, 5 days-on and 2 days-off for 42 days. How it is done:
(§5) FIG. 2. MEAN inhibits HepG2-luc xenograft tumor growth more potently than sorefenib in nude mice. Ten days after inoculation of 10^7 tumor cells subcutaneously, mice were treated with MEAN (15 mg/kg), sorafenib (15 mg/kg), or MEAN and sorafenib in combination at 15 mg/kg each, or vehicle through IP at a schedule of 5 days-on and 2 days-off for 42 days. The tumor growths were measured by whole mount imaging of luciferin florescence (representative images) (A) photon counts biweekly (B) and photon count at end of the experiment, day 42th (C), by volume (D), and by tumor weight at the experimental end point (E). Statistical analyses using t test are shown in (C and E), where *=p<0.5 and **=p<0.01. Where there is not black bar indicates p>0.5 (n=5).
(§6) HepG2-luc and Huh7-luc xenograft studies of efficacy and toxicity: Male nu/nu (nude) mice (18-20 g at experiment initiation) were maintained at the vivarium of Zhejiang University in a pathogen-free unit, under a 12-hour light/dark cycle. […] Images were collected and analyzed with Living Image software (Slidebook 4.1, Denver, Colo.). Tumor volumes were determined twice weekly by mechanically measuring the length (a) and width (b), with volume=ab^2/2. Tumor weights were measured at the experimental end point, and statistical analysis was performed using Student's t test. […]

For the next series, the system named is Huh7-luc xenograft. Briefly: Huh7-luc xenograft tumor growth in nude mice. The series is classed as in vivo. As to conditions: 15 mg/kg each agent, IP, 5 days-on and 2 days-off for 42 days. How it is done:
as §5, with “1.” for “2.”, “Huh7-luc” for “HepG2-luc”
as §6

In series [2] the test system is c-myc. Briefly: Western blot of treated xenograft tumor tissue, c-myc. The series is classed as in vivo, mice. The note with it: Huh7 and HepG2 tumors, end of 42 day treatment. How it is done:
as §3, §4
To evaluate whether the gene expression changes in response to MEAN is cell type specific, another HCC cell line, Huh7 was also examined for the corresponding gene expression changes upon the treatment by MEAN. […]

Series [3] can be described thus: Serum ALT and AST measurement in treated mice. As to conditions: 42nd day of treatment, 15 mg/kg each agent, vs vehicle. It counts as in vivo. How it is done:
Blood samples were collected from each mouse at the end of the 42th day. Serum alanine aminotransferase aspartate (ALT) and aspartate aminotransferase (AST) were measured with an automated biochemical analyzer (DRI-CHEM 4000ie, FUJIFILM).
To determine whether the combinational treatment by MEAN and sorefenib could increase toxicity compared to those caused by monotherapy, the toxicity induced by the treatment with either agent alone and in combination was evaluated in treated animals. Toxicity was assessed by periodic body weight, mice behavior (grooming), eating, stool consistency, and serum liver enzymes levels (alanine aminotransferase, ALT, and aspartate aminotransferase, AST) at the experimental end points. […] This increase is reversible within 2 weeks of the treatment withdrawal (FIG. 3C).

A short description of series [4]: Toxicity in treated xenograft mice: body weight, behavior, eating, stool. It counts as in vivo. As to conditions: 15 mg/kg each agent, 5 days on and 2 days off, six weeks. How it is done:
FIG. 3. Toxicity induced by treatment of MEAN, sorafenib or a combination of both were measured against vehicle treated group through monitoring body weight changes throughout treatment course (A) and detecting the serum levels of liver enzymes at the experimental end point (B). The recovery of liver enzymes days after experimental end point (42nd day). n=10. a: each group vs Vehicle, b: sorafenib vs MEAN, c: M+S vs MEAN. *: p<0.05, **: p<0.01, Sorafenib vs M+S: has no difference.
HepG2-luc and Huh7-luc xenograft studies of efficacy and toxicity: Male nu/nu (nude) mice (18-20 g at experiment initiation) were maintained at the vivarium of Zhejiang University in a pathogen-free unit, under a 12-hour light/dark cycle. […] Images were collected and analyzed with Living Image software (Slidebook 4.1, Denver, Colo.). Tumor volumes were determined twice weekly by mechanically measuring the length (a) and width (b), with volume=ab^2/2. Tumor weights were measured at the experimental end point, and statistical analysis was performed using Student's t test.
To determine whether the combinational treatment by MEAN and sorefenib could increase toxicity compared to those caused by monotherapy, the toxicity induced by the treatment with either agent alone and in combination was evaluated in treated animals. […]

The subject of a further series is HCC. As to conditions: cited from earlier work.
Series [5] concerns TXNIP. Briefly: Western blot of treated xenograft tumor tissue, TXNIP. The series is classed as in vivo, mice. The note with it: Huh7 and HepG2 tumors, end of 42 day treatment. How it is done: as §3, §4
The subject of series [6] is SHP-1. In words: Western blot of treated xenograft tumor tissue, SHP-1. It counts as in vivo, mice. As to conditions: Huh7 and HepG2 tumors, end of 42 day treatment. How it is done:
as §3, §4

The next series relates to KB/VCR. In words: Growth inhibition IC50 in multidrug-resistant vs parental cells (resistance factor), KB/VCR. The series is classed as cell-based. The note with it: ratio of IC50 in KB/VCR to sensitive parental cells. The protocol: as §1, §2
Series [7] deals with SIRT1. In words: Western blot of treated HCC cells in culture, SIRT1. The note with it: HepG2 and Huh7 cells. The series is classed as cell-based, human. The protocol:
as §4

The test system of series [8] is SHP-1. In words: Western blot of treated HCC cells in culture, SHP-1. It counts as cell-based, human. As to conditions: HepG2 and Huh7 cells in culture. The protocol:
as §4

The test system of series [9] is c-myc. In words: RNA array analysis of treated HepG2 cells. The series is classed as cell-based, human. The note with it: 20 μM for 6 hours, vs DMSO. The protocol:
RNA expression analysis was performed by GeneChip® PrimeView™ Human Gene Expression Array. Initially, genes were identified as being differentially expressed on the basis of a statistical significance (P <0.05) and 1.5-fold change (up or down) in expression levels in each comparison.
The choice of the treatment dose was based on the PK analyses (supplemental material) that the serum concentration of MEAN is around 20 uM approximately 6 hours after injection. Furthermore a relatively short duration of treatment was designed to catch the more primary cellular responses at the early stage of the treatment. GeneChip® PrimeView™ Human Gene Expression Array was used in triplicates to quantify RNA extracted from treated HepG2 cells.

A further series concerns HepG2 cells. Briefly: Cell cycle profiling by Dapi staining and flow cytometry. The series is classed as cell-based, human. As to conditions: 5 uM for 24 hours. The protocol:
After treatment, cells were washed with PBS two times and centrifugation then, re-suspended in PBS (Ca and Mg free). 3.0m1 ice cold 95% ethanol was added to the cell pellet in a dropwise manner while vortexing and then was incubated for 30 minutes. The volume was brought up to 15 mL with PBS and the cells was pelleted and washed one time with PBS via centrifugation. Cells were resuspended in 1 ml of 10 ug/ml Dapi in PBS with 0.1% TritonX-100 to a concentration of 1×10^6cells/ml and incubated for 30 minutes on ice. The samples were then analyzed through flowcytometery and the DNA contents of the cellular population were sorted and evaluated.
Additional evidence supporting the differences between MEAN and AMN came from their differential impact on cell cycle.
On the technique in general: Flow cytometry measures light scatter and fluorescence of single cells or particles in a stream.

Series [10] relates to c-myc. Briefly: Western blot of treated HCC cells in culture, c-myc. As to conditions: HepG2 and Huh7 cells; less than 10 uM (FIG. 5B and D). The series is classed as cell-based, human. How it is done:
as §4

Series [11] concerns TXNIP. In words: Expression in treated HCC cells in culture, TXNIP. It counts as cell-based, human. The note with it: treated cells in vitro. The protocol: as §4

As to `COc1cccc2c1C(=O)c1c(O)c3c(c(O)c1C2=O)C[C@@](O)(C(=O)CO)C[C@@H]3O[C@H]1C[C@H](N)[C@H](O)[C@H](C)O1` [doxorubicin, reference compound], the “resistance factor (RF)” value in the series on K562/ADR was 74.1; with MCF-7/ADR, 54.0.

Take `CNC(=O)c1cc(Oc2ccc(NC(=O)Nc3ccc(Cl)c(C(F)(F)F)c3)cc2)ccn1` [sorafenib, reference compound]: the “SIRT1 protein level in tumors” value with SIRT1 [1] is given as “does not significantly change”. For the same compound, the “tumor growth compared with vehicle (luciferase emission, tumor volume, tumor weight)” value with HepG2-luc xenograft and in the series with Huh7-luc xenograft was “significant tumor growth retardation” each time. In the series on c-myc [2], the “c-myc protein level in tumors” value is recorded as “does not significantly change”. Also, the “serum liver enzymes (ALT and AST) at experimental end point” value in series [3] is “more significantly increased”. For the same compound, the body weight change entry in [4] is recorded as “did not significantly alter body weight”. The median overall survival is on record as 6.5 months in the series with HCC (Asian study) and 10.7 months in the series with HCC (SHARP study). Also, in the series on TXNIP [5], the “TXNIP protein level in tumors” value was “does not significantly change”. Besides, the “SHP-1 protein level in tumors” value with SHP-1 [6] is listed as “does not significantly change”.

On to `CC[C@]1(O)C[C@H]2CN(CCc3c([nH]c4ccccc34)[C@@](C(=O)OC)(c3cc4c(cc3OC)N(C=O)[C@H]3[C@@](O)(C(=O)OC)[C@H](OC(C)=O)[C@]5(CC)C=CCN6CC[C@]43[C@@H]65)C2)C1` [vincristine, reference compound], for which the “resistance factor (RF)” value in the series on KB/VCR came to 51.2.

In the case of Amonafide [AMN, reference compound], the SIRT1 protein level result in the series with SIRT1 [7] is given as “not significantly changed”. Besides, the SHP-1 protein level result in the series with SHP-1 [8] is “does not significantly impact”. Besides, the “c-myc RNA expression level” value in the series with c-myc [9] is recorded as “significantly reduce”. Moreover, the “cell cycle profile (DNA content)” value in the series with HepG2 cells is on record as “G2 accumulation with diminishing Gl”. Also, in the series on c-myc [10], the “c-myc (myc) protein level” value was “does not significantly reduces”. Moreover, the TXNIP expression result in the series on TXNIP [11] is “significantly increase”.
